Measured values reported in BigSolDB 2.1.

CO[C@@]1(NC(=O)CSCC#N)C(=O)N2C(C(=O)O)=C(CSc3nnnn3C)CS[C@@H]21
solubility (mole fraction) (in ethanol, 278.15 K): 0.000215 | solubility (mole fraction) (in ethanol, 283.15 K): 0.000282 | solubility (mole fraction) (in ethanol, 288.15 K): 0.000369 | solubility (mole fraction) (in ethanol, 293.15 K): 0.000467 | solubility (mole fraction) (in ethanol, 298.15 K): 0.000596 | solubility (mole fraction) (in ethanol, 303.15 K): 0.000757 | solubility (mole fraction) (in isopropanol, 278.15 K): 4.6e-05 | solubility (mole fraction) (in isopropanol, 283.15 K): 6.16e-05 | solubility (mole fraction) (in isopropanol, 288.15 K): 8.19e-05 | solubility (mole fraction) (in isopropanol, 293.15 K): 0.000107 | solubility (mole fraction) (in isopropanol, 298.15 K): 0.000138 | solubility (mole fraction) (in isopropanol, 303.15 K): 0.000174 | solubility (mole fraction) (in methanol, 278.15 K): 0.00154 | solubility (mole fraction) (in methanol, 283.15 K): 0.00202 | solubility (mole fraction) (in methanol, 288.15 K): 0.00264 | solubility (mole fraction) (in methanol, 293.15 K): 0.00337 | solubility (mole fraction) (in methanol, 298.15 K): 0.00429 | solubility (mole fraction) (in methanol, 303.15 K): 0.00545 | solubility (mole fraction) (in water, 278.15 K): 1.57e-05 | solubility (mole fraction) (in water, 283.15 K): 2.05e-05 | solubility (mole fraction) (in water, 288.15 K): 2.65e-05 | solubility (mole fraction) (in water, 293.15 K): 3.46e-05 | solubility (mole fraction) (in water, 298.15 K): 4.39e-05 | solubility (mole fraction) (in water, 303.15 K): 5.52e-05
